For 20 molecules, IC50 results are on record in patent US20250034159A1, “INHIBITORS OF EPIDERMAL GROWTH FACTOR RECEPTOR” (ORIC Pharmaceuticals, Inc., priority 2021, published 2025).

The test system of one assay is BaF3_EGFR LR/CS cells. Kind of assay: Biological Activity Assay D: BaF3 cell proliferation assay, EGFR L858R/C797S mutant (BaF3 LR/CS). Format: cell-based. Conditions: Ba/F3 EGFR, read-out: BaF3 LR/CS IC50.
The test system of the next assay is BaF3_EGFR d19/CS cells. Briefly: Biological Activity Assay D: BaF3 cell proliferation assay, EGFR exon 19 deletion/C797S (BaF3 d19/CS). Format: cell-based. As to conditions: Ba/F3 EGFR, read-out: BaF3 d19/CS IC50.
For assay [1], the target named is recombinant human EGFR exon 19 deletion/C797S double mutant protein (Homo sapiens (Human), UniProt P00533, C797S/DEL746-750). Briefly: Biological Activity Assay C: biochemical assay against EGFR exon 19 deletion/C797S protein (EGFR d19/CS). The procedure, abridged:
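Compounds were tested as 16-point serial dilutions (final DMSO 2.5%) with a Phosphosens peptide sensor/ATP working solution (40 uM/4 mM). The signal was read kinetically over 90 cycles at 120 s intervals. IC50s came from 4-parameter fits of per-well slopes.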

In another assay the test system is Ba/F3_EGFR WT cells. Kind of assay: Biological Activity Assay D: BaF3 cell proliferation assay, EGFR wild-type (BaF3 WT). In kind it is cell-based. Conditions: Ba/F3 EGFR, read-out: BaF3 WT IC50.
Where [2] appears, read: BaF3_EGFR LR/CS cells, ~72 hours, CellTiter-Glo.
The mark [3] stands for this setting: BaF3_EGFR d19/CS cells, ~72 hours, CellTiter-Glo.
Setting [4] is: Ba/F3_EGFR WT cells, ~72 hours, CellTiter-Glo.

SMILES strings stand for the structures. Like-named read-outs stand apart in the source and are kept apart here.

Sequence of recombinant human EGFR exon 19 deletion/C797S double mutant protein (P00533 other isoform, or with tags, fused parts or gaps C797S/del 1-668/del 746-750 limits assumed): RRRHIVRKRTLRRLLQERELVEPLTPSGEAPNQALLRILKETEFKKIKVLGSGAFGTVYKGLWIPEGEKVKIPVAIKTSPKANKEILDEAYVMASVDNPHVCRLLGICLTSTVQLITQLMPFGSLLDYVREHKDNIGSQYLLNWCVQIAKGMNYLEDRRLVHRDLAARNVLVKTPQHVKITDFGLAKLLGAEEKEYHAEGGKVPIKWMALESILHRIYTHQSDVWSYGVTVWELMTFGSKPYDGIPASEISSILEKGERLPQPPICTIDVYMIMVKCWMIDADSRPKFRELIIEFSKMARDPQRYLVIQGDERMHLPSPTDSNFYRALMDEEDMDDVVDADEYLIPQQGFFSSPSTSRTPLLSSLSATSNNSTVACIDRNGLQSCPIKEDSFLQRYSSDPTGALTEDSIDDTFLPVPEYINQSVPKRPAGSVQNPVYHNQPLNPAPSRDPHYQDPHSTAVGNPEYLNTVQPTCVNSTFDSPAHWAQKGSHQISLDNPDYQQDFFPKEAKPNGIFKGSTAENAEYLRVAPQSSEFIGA

`NC(=O)c1ccccc1-c1cc2c(-c3cn(C4CS(=O)(=O)C4)nc3-c3ccc(F)cc3)ncnc2o1` [Example 183, 2-{4-[1-(1,1-dioxo-1λ6-thietan-3-yl)-3-(4-fluorophenyl)-1H-pyrazol-4-yl]furo[2,3-d]pyrimidin-6-yl}benzamide]: the IC50 was determined as 145 nM with BaF3_EGFR LR/CS cells (setting [2]), 146 nM in the assay with BaF3_EGFR d19/CS cells (setting [3]), 0.14 nM in assay [1] and 5420 nM in the assay with Ba/F3_EGFR WT cells (setting [4]).
On the same counts, the results for `Fc1ccc(-c2nn([C@@H]3C[C@H]4CC[C@@H](C3)O4)cc2-c2ncnc3oc(-c4ccccc4)cc23)cc1` [Example 186, 4-{3-(4-fluorophenyl)-1-[(1R,3s,5S)-8-oxabicyclo[3.2.1]octan-3-yl]-1H-pyrazol-4-yl}-6-phenylfuro[2,3-d]pyrimidine] are 186 nM, 348 nM, 0.63 nM and 4450 nM.
On the same counts, the results for `O=S1(=O)CC(n2cc(-c3ncnc4oc(-c5cccnn5)cc34)c(-c3ccc(F)cc3)n2)C1` [Example 187, 3-{3-(4-fluorophenyl)-4-[6-(pyridazin-3-yl)furo[2,3-d]pyrimidin-4-yl]-1H-pyrazol-1-yl}-1λ6-thietane-1,1-dione] are 1240 nM, 589 nM, 3.36 nM and 9020 nM.
In the case of `O=S1(=O)CC(n2cc(-c3ncnc4oc(-c5cnccn5)cc34)c(-c3ccc(F)cc3)n2)C1` [Example 188, 3-{3-(4-fluorophenyl)-4-[6-(pyrazin-2-yl)furo[2,3-d]pyrimidin-4-yl]-1H-pyrazol-1-yl}-1λ6-thietane-1,1-dione], the IC50 is 489 nM in the assay with BaF3_EGFR LR/CS cells (setting [2]), 246 nM in the assay on BaF3_EGFR d19/CS cells (setting [3]), 2.23 nM in assay [1] and 11700 nM in the assay on Ba/F3_EGFR WT cells (setting [4]).
On the same counts, the results for `C[C@@H]1C[C@@H](n2cc(-c3ncnc4oc(-c5ccccc5)cc34)c(-c3ccc(F)cc3)n2)CN1S(C)(=O)=O` [Example 189, 4-{3-(4-fluorophenyl)-1-[(3R,5R)-1-(methanesulfonyl)-5-methylpyrrolidin-3-yl]-1H-pyrazol-4-yl}-6-phenylfuro[2,3-d]pyrimidine] are 5.51 nM, 5.86 nM, 0.26 nM and 132 nM.
On to `O=S1(=O)CC(n2cc(-c3ncnc4oc(-c5cccc(CN6CCOCC6)c5)cc34)c(-c3ccc(F)cc3)n2)C1` [Example 190, 3-[3-(4-fluorophenyl)-4-(6-{3-[(morpholin-4-yl)methyl]phenyl}furo[2,3-d]pyrimidin-4-yl)-1H-pyrazol-1-yl]-16-thietane-1,1-dione], for which the IC50 in the assay on BaF3_EGFR LR/CS cells (setting [2]) came out at 64 nM; in the assay with BaF3_EGFR d19/CS cells (setting [3]), 59.1 nM; in assay [1], 0.18 nM; with Ba/F3_EGFR WT cells (setting [4]), 2160 nM.
As to `CC(=O)N1CC=C(c2nc3c(-c4cn(C5CS(=O)(=O)C5)nc4-c4ccc(F)cc4)ncnc3[nH]2)CC1` [Example 191, 3-{4-[8-(1-acetyl-1,2,3,6-tetrahydropyridin-4-yl)-9H-purin-6-yl]-3-(4-fluorophenyl)-1H-pyrazol-1-yl}-1λ6-thietane-1,1-dione], the IC50 in the assay on BaF3_EGFR LR/CS cells (setting [2]) is over 20000 nM; in the assay with BaF3_EGFR d19/CS cells (setting [3]), over 20000 nM; in assay [1], 0.65 nM; with Ba/F3_EGFR WT cells (setting [4]), over 20000 nM.
For `CS(=O)(=O)[C@H]1C[C@H](n2cc(-c3ncnc4oc(-c5ccccc5)cc34)c(-c3ccc(F)cc3)n2)C1` [Example 194, 4-{3-(4-fluorophenyl)-1-[(1r,3r)-3-(methanesulfonyl)cyclobutyl]-1H-pyrazol-4-yl}-6-phenylfuro[2,3-d]pyrimidine], the IC50 with BaF3_EGFR LR/CS cells (setting [2]) amounted to 175 nM; in the assay on BaF3_EGFR d19/CS cells (setting [3]) it was 274 nM; in assay [1] it was 0.83 nM; in the assay on Ba/F3_EGFR WT cells (setting [4]) it was 3610 nM.
The corresponding values for `O=S1(=O)CC(n2cc(-c3ncnc4oc(-c5ncccn5)cc34)c(-c3ccc(F)cc3)n2)C1` [Example 195, 3-{3-(4-fluorophenyl)-4-[6-(pyrimidin-2-yl)furo[2,3-d]pyrimidin-4-yl]-1H-pyrazol-1-yl}-1λ6-thietane-1,1-dione] are 799 nM, 365 nM, 6.89 nM and 6000 nM.
Take `O=S1(=O)CC(n2cc(-c3ncnc4oc(-c5ccncn5)cc34)c(-c3ccc(F)cc3)n2)C1` [Example 196, 3-{3-(4-fluorophenyl)-4-[6-(pyrimidin-4-yl)furo[2,3-d]pyrimidin-4-yl]-1H-pyrazol-1-yl}-1λ6-thietane-1,1-dione]: the IC50 with BaF3_EGFR LR/CS cells (setting [2]) was found to be 212 nM; in the assay with BaF3_EGFR d19/CS cells (setting [3]), 133 nM; in assay [1], 0.89 nM; with Ba/F3_EGFR WT cells (setting [4]), 1740 nM.
On the same counts, the results for `C[C@H]1C[C@H](n2cc(-c3ncnc4oc(-c5ccccc5)cc34)c(-c3ccc(F)cc3)n2)CN1S(C)(=O)=O` [Example 197, 4-{3-(4-fluorophenyl)-1-[(3S,5S)-1-(methanesulfonyl)-5-methylpyrrolidin-3-yl]-1H-pyrazol-4-yl}-6-phenylfuro[2,3-d]pyrimidine] are 12.8 nM, 46.5 nM, 0.45 nM and 139 nM.
Consider `C[C@H]1C[C@@H](n2cc(-c3ncnc4oc(-c5ccccc5)cc34)c(-c3ccc(F)cc3)n2)CN1S(C)(=O)=O` [Example 198, 4-{3-(4-fluorophenyl)-1-[(3R,5S)-1-(methanesulfonyl)-5-methylpyrrolidin-3-yl]-1H-pyrazol-4-yl}-6-phenylfuro[2,3-d]pyrimidine], for which the IC50 in the assay on BaF3_EGFR LR/CS cells (setting [2]) was 17.9 nM; in the assay on BaF3_EGFR d19/CS cells (setting [3]), 51.9 nM; in assay [1] it was 0.72 nM; in the assay with Ba/F3_EGFR WT cells (setting [4]), 703 nM.
With `Cn1cnc(-c2cc3c(-c4cn(C5CS(=O)(=O)C5)nc4-c4ccc(F)cc4)ncnc3o2)c1` [Example 200, 3-{3-(4-fluorophenyl)-4-[6-(1-methyl-1H-imidazol-4-yl)furo[2,3-d]pyrimidin-4-yl]-1H-pyrazol-1-yl}-16-thietane-1,1-dione], the IC50 turned out to be 5.04 nM in the assay with BaF3_EGFR LR/CS cells (72 h), 8.78 nM in the assay with BaF3_EGFR d19/CS cells (72 h), 0.13 nM in assay [1] and 412 nM in the assay on Ba/F3_EGFR WT cells (72 h).
For the molecule `Cn1ccnc1-c1cc2c(-c3cn(C4CS(=O)(=O)C4)nc3-c3ccc(F)cc3)ncnc2o1` [Example 201, 3-{3-(4-fluorophenyl)-4-[6-(1-methyl-1H-imidazol-2-yl)furo[2,3-d]pyrimidin-4-yl]-1H-pyrazol-1-yl}-1λ6-thietane-1,1-dione], the IC50 with BaF3_EGFR LR/CS cells (setting [2]) was determined as 200 nM; with BaF3_EGFR d19/CS cells (setting [3]), 142 nM; in assay [1], 0.52 nM; in the assay with Ba/F3_EGFR WT cells (setting [4]) it was 1580 nM.
On the same counts, the results for `CC1(C)CC(n2cc(-c3ncnc4oc(-c5ccccc5)cc34)c(-c3ccc(F)cc3)n2)CCO1` (centres unmarked) [Example 202, 4-[1-(2,2-dimethyloxan-4-yl)-3-(4-fluorophenyl)-1H-pyrazol-4-yl]-6-phenylfuro[2,3-d]pyrimidine] are 219 nM, 512 nM, 1.48 nM and 2350 nM.
Regarding `CN(c1cccc(-c2cc3c(-c4cn(C5CS(=O)(=O)C5)nc4-c4ccc(F)cc4)ncnc3o2)c1)S(C)(=O)=O` [Example 203, N-(3-{4-[1-(1,1-dioxo-1λ6-thietan-3-yl)-3-(4-fluorophenyl)-1H-pyrazol-4-yl]furo[2,3-d]pyrimidin-6-yl}phenyl)-N-methylmethanesulfonamide], the IC50 amounted to 10.6 nM in the assay on BaF3_EGFR LR/CS cells (setting [2]), 17.1 nM with BaF3_EGFR d19/CS cells (setting [3]), 0.14 nM in assay [1] and 289 nM in the assay with Ba/F3_EGFR WT cells (setting [4]).
Consider `Fc1ccc(-c2nn(CC3CCC(F)(F)CC3)cc2-c2ncnc3oc(-c4ccccc4)cc23)cc1` [Example 204, 4-{1-[(4,4-difluorocyclohexyl)methyl]-3-(4-fluorophenyl)-1H-pyrazol-4-yl}-6-phenylfuro[2,3-d]pyrimidine], for which the IC50 with BaF3_EGFR LR/CS cells (setting [2]) turned out to be 288 nM; with BaF3_EGFR d19/CS cells (setting [3]), 1220 nM; in assay [1], 10.2 nM; with Ba/F3_EGFR WT cells (setting [4]), 8130 nM.
Take `CN1CCN(Cc2cccc(-c3cc4c(-c5cn(C6CS(=O)(=O)C6)nc5-c5ccc(F)cc5)ncnc4o3)c2)CC1` [Example 205, 3-[3-(4-fluorophenyl)-4-(6-{3-[(4-methylpiperazin-1-yl)methyl]phenyl}furo[2,3-d]pyrimidin-4-yl)-1H-pyrazol-1-yl]-1λ6-thietane-1,1-dione]: the IC50 worked out at 51 nM in the assay on BaF3_EGFR LR/CS cells (setting [2]), 49.7 nM in the assay with BaF3_EGFR d19/CS cells (setting [3]), 0.11 nM in assay [1] and 1280 nM in the assay with Ba/F3_EGFR WT cells (setting [4]).
Turning to `O=S1(=O)CC(n2cc(-c3ncnc4oc(C#CC5CCC5)cc34)c(-c3ccc(F)cc3)n2)C1` [Example 206, 3-{4-[6-(cyclobutylethynyl)furo[2,3-d]pyrimidin-4-yl]-3-(4-fluorophenyl)-1H-pyrazol-1-yl}-1λ6-thietane-1,1-dione], the IC50 in the assay on BaF3_EGFR LR/CS cells (setting [2]) was 2500 nM; with BaF3_EGFR d19/CS cells (setting [3]), 1110 nM; in assay [1], 6.02 nM; in the assay with Ba/F3_EGFR WT cells (setting [4]), over 20000 nM.
On to `Fc1ccc(-c2nn(C3CCCCC3(F)F)cc2-c2ncnc3oc(-c4ccccc4)cc23)cc1` (centres unmarked) [Example 207, 4-[1-(2,2-difluorocyclohexyl)-3-(4-fluorophenyl)-1H-pyrazol-4-yl]-6-phenylfuro[2,3-d]pyrimidine], for which the IC50 is 140 nM with BaF3_EGFR LR/CS cells (setting [2]), 633 nM with BaF3_EGFR d19/CS cells (setting [3]), 3.26 nM in assay [1] and 4390 nM with Ba/F3_EGFR WT cells (setting [4]).
